# From the supplement of paper PMC4862054
# Tests used:
# MDA-MB-231 [1] = conditions: 72 h
# Procedure: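 Drug sensitivity and resistance testing (DSRT) of breast cancer cell lines in 384-well plates, 5 concentrations in 10-fold dilutions over a compound-specific 10,000-fold range. After 72 h, cytotoxicity was read by CellTox Green fluorescence and viability by CellTiter-Glo luminescence (multiplexed), normalised to DMSO and benzethonium chloride controls. EC50 is the inflection point of the fitted dose-response curve (bottom asymptote free, so it can be relative for partial curves) and is censored at the highest tested concentration. Rows with DSS 0 (no meaningful response) were excluded.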
# BT-549 [2] = conditions: 72 h
# In short: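 Per-plate normalisation used 0.1 % DMSO and a positive kill control. Breast cancer cell lines (20 µl suspension) were seeded into 384-well plates containing compound at 5 concentrations in 10-fold steps across a compound-specific 10,000-fold range, incubated for 72 h, and read first for CellTox Green fluorescence (485/520 nm), then for CellTiter-Glo luminescence. EC50 was fitted from the dose-response curves and censored at the top concentration.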
# BT-474 = test: normalised response (% of control), CellTiter-Glo; higher = more viable cells (100 = DMSO, 0 = benzethonium chloride kill control); conditions: incubation time: 72 h
# In short: (§1)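 Each entry is the normalised signal at a single concentration within a series. The series comprised 5 concentrations in 10-fold steps over a compound-specific 10,000-fold range, placed in 384-well plates into which breast cancer cell lines were seeded as 20 µl suspension and incubated 72 h. CellTox Green (485/520 nm) fluorescence and then CellTiter-Glo luminescence were read, with signals normalised per plate to 0.1 % DMSO (100) and a positive kill control (0).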
# BT-549 [3] = test: as above; conditions: incubation time: 72 h
# In short: as §1
# CAL-120 = test: as above; conditions: incubation time: 72 h
# In short: as §1
# CAL-148 = test: as above; conditions: incubation time: 72 h
# In short: as §1
# CAL-51 = test: as above; conditions: incubation time: 72 h
# In short: as §1
# CAL-85-1 = test: as above; conditions: incubation time: 72 h
# In short: as §1
# DU-4475 = test: as above; conditions: incubation time: 72 h
# In short: as §1
# HCC1143 = test: as above; conditions: incubation time: 72 h
# In short: as §1
# HCC1599 = test: as above; conditions: incubation time: 72 h
# In short: as §1
# HCC1937 = test: as above; conditions: incubation time: 72 h
# In short: as §1
# HDQ-P1 = test: as above; conditions: incubation time: 72 h
# In short: as §1
# Hs578T = test: as above; conditions: incubation time: 72 h
# In short: as §1
# MCF-10A = test: as above; conditions: incubation time: 72 h
# In short: as §1
# MDA-MB-231 [4] = test: as above; conditions: incubation time: 72 h
# In short: as §1
# MDA-MB-436 = test: as above; conditions: incubation time: 72 h
# In short: as §1
# MDA-MB-453 = test: as above; conditions: incubation time: 72 h
# In short: as §1
# MDA-MB-468 = test: as above; conditions: incubation time: 72 h
# In short: as §1
# MFM-223 = test: as above; conditions: incubation time: 72 h
# In short: as §1
# SK-BR-3 = test: as above; conditions: incubation time: 72 h
# In short: as §1
SMILES,"EC50, CellTox Green (MDA-MB-231 [1]) [nM]","EC50, CellTiter-Glo (BT-549 [2]) [nM]",normalised response (BT-474) [%],normalised response (BT-549 [3]) [%],normalised response (CAL-120) [%],normalised response (CAL-148) [%],normalised response (CAL-51) [%],normalised response (CAL-85-1) [%],normalised response (DU-4475) [%],normalised response (HCC1143) [%],normalised response (HCC1599) [%],normalised response (HCC1937) [%],normalised response (HDQ-P1) [%],normalised response (Hs578T) [%],normalised response (MCF-10A) [%],normalised response (MDA-MB-231 [4]) [%],normalised response (MDA-MB-436) [%],normalised response (MDA-MB-453) [%],normalised response (MDA-MB-468) [%],normalised response (MFM-223) [%],normalised response (SK-BR-3) [%]
Cn1c(=O)c(F)c(Nc2ccc(I)cc2F)c2c(=O)n(C[C@@H](O)CO)cnc21 [TAK-733],54.6,,,,,,,,,,,,,,,,,,,,
COC(=O)C[C@](O)(CCCC(C)(C)O)C(=O)O[C@@H]1C(OC)=C[C@]23CCCN2CCc2cc4c(cc2[C@H]13)OCO4 [Omacetaxine],620,50.3,,,,,,,,,,,,,,,,,,,
Cc1cc(C(C)Nc2ccccc2)c2nc(N3CCOCC3)cc(=O)n2c1 (configuration not stated) [TGX-221],> 10000,947,,,,,,,,,,,,,,,,,,,
C[C@@]1(C(=O)Nc2ccc(F)nc2)CCCN1c1nc(Nc2cc(C3CC3)n[nH]2)c2cccn2n1 (10000 nM),,,29.8,12.7,13.4,56.7,19.9,38.9,31.4,36.1,54.9,62.6,8.28,44.7,7.53,26.1,40.6,127,20.4,25.2,57.4
COc1c(C)cnc(Cn2cnc3c(Cl)nc(N)nc32)c1C [BIIB021] (10000 nM),,,27.5,38.2,45.4,25.1,11.4,18.6,0.28,31.5,47.4,29.4,20.3,33.7,13.4,16.7,41.7,27.5,23.8,35.1,34.3
COc1ccc(C2=N[C@@H](c3ccc(Cl)cc3)[C@@H](c3ccc(Cl)cc3)N2C(=O)N2CCNC(=O)C2)c(OC(C)C)c1 [Nutlin-3] (10000 nM),,,93.3,87,100,71.4,50.7,97.3,72.7,92.9,98.5,97.6,97.1,102,89.2,91.9,102,68.7,78.9,93.3,99.1
COc1ncc(-c2ccc3nccc(-c4ccnnc4)c3c2)cc1NS(=O)(=O)c1ccc(F)cc1F (1000 nM),,,43,13.9,29.9,6.28,6.49,21,9.21,23.6,56.4,24,12.8,16.1,18.8,33.7,39.4,7.5,12.7,33.4,19.1
CS(=O)(=O)OCCCCOS(C)(=O)=O [Busulfan] (100000 nM),,,89.9,107,101,106,110,104,101,104,96,98.8,98.4,102,102,101,104,102,108,107,111
O=c1[nH]c(=O)n([C@H]2C[C@H](O)[C@@H](CO)O2)cc1F [Floxuridine] (10000 nM),,,59,80.1,33.5,95.7,29.4,23.6,70.7,77.6,58.1,42,82.8,23,84.7,67.9,57.3,97.6,60.7,103,44.8
FC(F)c1nc2ccccc2n1-c1nc(N2CCOCC2)nc(N2CCOCC2)n1 [ZSTK474],,396,,,,,,,,,,,,,,,,,,,
COc1cccc2c1C(=O)c1c(O)c3c(c(O)c1C2=O)C[C@@](O)(C(C)=O)C[C@@H]3O[C@H]1C[C@H](N)[C@H](O)[C@H](C)O1 [Daunorubicin] (1000 nM),,,19,10.7,41.2,0.79,3.08,7.68,0.14,23.9,19.3,32.1,27.9,35.1,27.1,8.81,22.8,4.31,8.42,34.7,11.6
C[C@@H]1C=C2C(=O)O[C@@H]3CC[C@H](C1)[C@]23O [Galiellalactone] (50000 nM),,,108,44.3,105,124,71.1,72.2,102,100,90.3,107,93.9,101,106,106,89.5,105,39.1,105,107
O=c1[nH]cc(F)c(=O)[nH]1 [Fluorouracil] (10000 nM),,,92.7,91.7,95.5,88.6,85.3,57.5,99.5,76,93.8,72.8,91.8,93.7,88.4,82.2,75.8,94.8,77.4,105,74.8
COc1cc(Nc2ncc(F)c(Nc3ccc4c(n3)NC(=O)C(C)(C)O4)n2)cc(OC)c1OC [Tamatinib],,650,,,,,,,,,,,,,,,,,,,
Cn1cnc2c(F)c(Nc3ccc(Br)cc3F)c(C(=O)NOCCO)cc21 [MEK-162] (1000 nM),,,73.9,92.7,86.6,95.9,76.4,78.8,1.31,86.5,100,86,71.5,90,38.9,74.8,94,97.9,88.3,96.2,94.5
CS(=O)(=O)CCNCc1ccc(-c2ccc3ncnc(Nc4ccc(OCc5cccc(F)c5)c(Cl)c4)c3c2)o1 [Lapatinib] (1000 nM),,,96.8,105,105,96.3,120,73.5,106,95.4,97.1,101,69.5,101,43.5,105,103,80.5,83.6,99.5,28.5
COC1=CC(c2cc3ccccc3[nH]2)=N/C1=C\c1[nH]c(C)cc1C [Obatoclax] (10000 nM),,,70.5,29.3,92.5,76.5,7.62,76.3,84,92,88.2,67.7,91.1,74.7,95.8,66.9,81.6,57.5,79.3,71.2,64.3
COC1=C2C[C@@H](C)C[C@H](OC)[C@H](O)[C@@H](C)/C=C(\C)[C@H](OC(N)=O)[C@@H](OC)/C=C\C=C(/C)C(=O)NC(=CC1=O)C2=O [Geldanamycin] (10000 nM),,,8.17,19.2,26.7,33.4,6.33,10.5,0.14,24.1,45,24.2,19,16.8,10.7,3.82,24.4,29.5,7.56,20.3,30.7
CCOc1cc2ncc(C#N)c(Nc3ccc(OCc4ccccn4)c(Cl)c3)c2cc1NC(=O)/C=C/CN(C)C [Neratinib] (1000 nM),,,79.1,56.1,68.4,68.8,45,42.6,95.3,72.7,95.5,66.1,46.3,72.3,25.4,74.2,56.3,63.7,36.4,62.8,16.2
C[C@@H]1C=C2C(=O)O[C@@H]3CC[C@H](C1)[C@]23O [Galiellalactone],,17700,,,,,,,,,,,,,,,,,,,
O=C(c1ccc(OCCN2CCCCC2)cc1)c1c(-c2ccc(O)cc2)sc2cc(O)ccc12 [Raloxifene] (10000 nM),,,62.3,70.7,82.2,99.4,104,76.7,90.1,101,49.1,79.1,86.8,96.9,107,68.5,71.8,66.1,46.1,62.5,82.7
CCS(=O)(=O)c1cccc(-c2cc(C(=O)NC3CCN(C)CC3)c(C)c3[nH]c4ncc(C)cc4c23)c1 [TAK-901] (1000 nM),,,31.6,28.7,52.8,92.8,49.8,73.4,84.9,44.4,82.3,64.5,39.4,75.2,25.4,23,57,104,36.4,45.9,80.4
